Measured values as given in patent publication US12702715B2, “Targeted RNA degradation allows precision repurposing of protein-targeted small molecule medicines to RNA” (University of Florida Research Foundation, Incorporated, priority 2020, dated 2026).
pIC50: −log10 of the molar value. Entries after “also recorded” stand apart in the source; their conditions may differ.

Assays:
pre-miR-21 = assay: In vitro Dicer processing of pre-miR-21; format: biochemical, human
Description: In vitro Dicer Processing. The pre-miR-21 WT RNA or pre-miR-21 base pair mutant were 5′-end labeled with T4 polynucleotide kinase and [γ-^32P] ATP as described previously^7. The RNA was folded in 1× Reaction Buffer (Genlantis) by heating at 55° C. for 5 min and cooling slowly to room temperature on the benchtop. The mixture was then supplemented with 2.5 mM MgCl2 and 1 mM ATP. The Dicer processing reaction was performed as described previously^6. The cleavage products were resolved on a 15% polyacrylamide denaturing gel and imaged using a Molecular Dynamics Typhoon phosphorimager and quantified with QuantityOne software from Bio-Rad.

[1] = tested on: base pair mutant RNA (control RNA); assay: Fluorescent binding affinity measurement, base pair mutant (control RNA); details: up to 40 μM of the mutant RNA
Description: Fluorescent Binding Affinity Measurements. Binding assays were completed as previously described^5. Briefly, the RNA of interest was folded as described in the “Solution-based Dye Displacement Assay” section, including the addition of BSA. Then, 1 was added to the RNA solution to a final concentration of 0.5 μM. The solution was serial diluted with 1× AB2 containing 0.5 μM of 1. The solutions were incubated at room temperature in the dark for 30 min. The solutions were then transferred to a black 384-well plate. Fluorescence intensity was measured using a Tecan plate reader (Gain: 100, Integration time: 40 μs) with excitation wavelength of and emission wavelength of 355 nm and 535 nm, respectively. The change in fluorescence was normalized to samples lacking RNA. Binding affinity was calculated by using Equation 2, as previously described^5. I=I0+0.5Δε{([FL]0+[RNA]0+Kd)−(([FL]0+[RNA]0+Kd)^2−4[FL]0[RNA]0)^0.5} (2) where I and I0 are the measured fluorescence intensity of compound with or without RNA, respectively, Δε is the difference between the fluorescence intensity with infinite concentration of RNA or without RNA, [FL]0 and [RNA]0 are the concentrations of small molecule and RNA, respectively, and Kd is the dissociation constant.

MDA-MB-231 cells = assay: Boyden chamber invasion assay, MDA-MB-231; format: cell-based, human
Description: Boyden Chamber Invasion Assay. MDA-MB-231 or MCF-10A cells (5×10^4) in serum free growth medium with or without compound treatment were seeded into hanging cell culture inserts (for 24-well plates) pre-coated with Matrigel. Complete growth medium was added to the bottom well. After 16-24 h, the medium was removed, and the hanging inserts were washed with 1×DPBS twice and then fixed with 4% paraformaldehyde in 1×DPBS at room temperature for 20 min. Then the inserts were washed twice with 1×DPBS and stained with 0.1% (w/v) crystal violet 1×DPBS for 20 min. The inserts were washed twice with nanopure water and once with 1×DPBS. Cells on the surface of the Matrigel (non-invasive) were removed with cotton swabs and invading cells were counted and imaged under a microscope.

FLT3 [2] = assay: FLT3 degradation Western blot in MDA-MB-231 cells; format: cell-based, human
Description: In each case, the secondary antibody was diluted two times more than the primary antibody.

FLT3 [3] = target: T1, FLT3 (Homo sapiens, UniProt P36888); assay: Cellular Chem-CLIP/C-Chem-CLIP to study occupancy of an RTK; format: cell-based
T1 construct: endogenous in cells; host or cells: MDA-MB-231
T1 sequence (P36888 27-993): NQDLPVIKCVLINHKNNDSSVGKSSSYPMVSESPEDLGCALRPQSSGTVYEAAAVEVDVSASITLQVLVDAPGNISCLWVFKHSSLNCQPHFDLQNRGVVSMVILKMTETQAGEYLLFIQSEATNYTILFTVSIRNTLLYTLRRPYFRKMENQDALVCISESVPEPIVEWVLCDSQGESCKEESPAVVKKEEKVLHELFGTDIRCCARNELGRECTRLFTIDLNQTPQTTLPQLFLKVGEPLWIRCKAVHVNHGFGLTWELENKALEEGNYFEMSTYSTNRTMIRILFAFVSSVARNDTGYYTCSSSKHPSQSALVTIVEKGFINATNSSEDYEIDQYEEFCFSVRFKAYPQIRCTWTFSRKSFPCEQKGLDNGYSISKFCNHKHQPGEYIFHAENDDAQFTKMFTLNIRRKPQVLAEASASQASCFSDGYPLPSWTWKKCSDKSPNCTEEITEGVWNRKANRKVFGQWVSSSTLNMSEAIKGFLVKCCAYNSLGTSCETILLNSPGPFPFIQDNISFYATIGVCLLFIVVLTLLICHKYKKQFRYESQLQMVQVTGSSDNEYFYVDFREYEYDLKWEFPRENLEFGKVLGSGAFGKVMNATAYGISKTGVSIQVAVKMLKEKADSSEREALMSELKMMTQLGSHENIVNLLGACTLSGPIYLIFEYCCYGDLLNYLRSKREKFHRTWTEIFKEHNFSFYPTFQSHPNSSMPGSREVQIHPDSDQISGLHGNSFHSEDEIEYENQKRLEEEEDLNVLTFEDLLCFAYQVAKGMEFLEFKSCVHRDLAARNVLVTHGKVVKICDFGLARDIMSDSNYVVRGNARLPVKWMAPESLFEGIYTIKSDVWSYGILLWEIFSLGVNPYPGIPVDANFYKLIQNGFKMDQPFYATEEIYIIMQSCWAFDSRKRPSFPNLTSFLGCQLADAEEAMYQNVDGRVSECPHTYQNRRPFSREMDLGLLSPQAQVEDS
Description: Cellular Chem-CLIP/C-Chem-CLIP to Study Occupancy of an RTK. Compound treatment and isolation of cells was completed as described for cellular occupancy studies of pre-miR-21. Total protein was extracted and concentration determined as described in the “Western Blotting” section. Approximately 1 mg of total protein was used for following pull-down experiments, using a protocol adapted from a previously published method 8. Protein cross-linked to the probe were clicked to disulfide biotin azide as described above except the amount of each reagents was doubled (20 μL/sample). Then, to the mixture was added ice-cold, 4:1 mixture of methanol/chloroform (2.5 mL) followed by 1 mL of ice-cold 1×DPBS. The mixture was centrifuged at 5000×g for 10 min at 4° C. to fractionate a protein interphase between organic and aqueous layers. […] The washed protein mixture was centrifuged at 5000×g for 10 min at 4° C. to pellet the protein. The pellet was dissolved in H2O, and to this solution was added 20 μLL streptavidin beads for 30 min at room temperature. The solution was removed, and the beads were washed once with 0.2% SDS in 1×DPBS, twice with detergent-free 1×DPBS and twice with nanopure water. After these washing steps, protein was cleaved as described above. The supernatant was collected, and protein concentration was determined with Pierce Micro BCA Protein Assay kit. […] Sample preparation was completed as described above for cellular Chem-CLIP studies. Western blotting was performed on total protein (10 μg) before or after pull-down, indicated as “Input” or “Output”, as described in Western Blotting.

Compound	in vitro processing of pre-miR-21 (pre-miR-21)	binding to control RNA / base pair mutant [1]	invasion of MDA-MB-231 cells (MDA-MB-231 cells)	fold greater concentration than 1 required to compete off degradation by PROTAC 3 (FLT3 [2]) [fold]	concentration required to compete off the target degradation of PROTAC 3 (FLT3 [2]; co-treatment with 3) [µM]	fold decrease / difference in cellular protein occupancy versus 1 (FLT3 [3]) [fold]	competition of FLT3 enrichment by probe 4 (FLT3 [3]; 0.01-10 μM pre-treatment)	pIC50 (FLT3 [3]; C-Chem-CLIP, MDA-MB-231, read-out: IC50 for inhibition of the Chem-CLIP probe binding to FLT3)	concentration competing off probe 4 from FLT3 to the same extent (FLT3 [3]; probe 4 1 μM) [µM]	enrichment of FLT3 by probe (FLT3 [3]; MDA-MB-231)
CN1CCN(c2ccc3nc(-c4c(N)c5c(F)cccc5[nH]c4=O)[nH]c3c2)CC1 [Compound 1, Dovitinib, reference compound]	inhibited	No saturable binding	inhibited invasiveness; also recorded: reduced	–	–	–	–	–	–	–
CCOC(=O)C1=C(Nc2ccccc2)S/C(=C\c2ccc(OCCOCCOCCOCCNC(=O)NCCN3CCN(c4ccc5[nH]c(-c6c(N)c7c(F)cccc7[nH]c6=O)nc5c4)CC3)c(O)c2)C1=O [Compound 2, Ribotac-Dovitinib]	–	–	reduced the invasive characteristic	100	10	100	competed off	5.00	10	–
C#CCCC1(CCC(=O)NCCN2CCN(c3ccc4[nH]c(-c5c(N)c6c(F)cccc6[nH]c5=O)nc4c3)CC2)N=N1 [Compound 4]	–	–	–	–	–	–	–	–	–	enriched
